In publication PMC9858427, “Design, synthesis and biological evaluation of 2-((4-sulfamoylphenyl)amino)-pyrrolo[2,3-d]pyrimidine derivatives as CDK inhibitors” (Journal of Enzyme Inhibition and Medicinal Chemistry, 2023):
Like-named read-outs stand apart in the source and are kept apart here.

Key:
MIA PaCa-2 cells = test: MTT proliferation assay in MIA PaCa-2 cells; type: cell-based, human; details: 72 h drug exposure
Procedure: (§1) The human pancreatic carcinoma MIA PaCa-2 was purchased from China Centre for Type Culture Collection, AsPC-1 and BxPC-3 cell Lines were purchased from Cell Centre of the Institute of Basic Medical Sciences, Chinese Academy of Medical Sciences and Peking Union Medical College. PANC-1 was kindly provided by Nankai Hospital (Tianjin, China). These cancer cell lines were cultured according to the manufacturer’s instruction.
(§2) Then 3-fold diluted concentrations of tested compound were added respectively which was dissolved by DMSO in the ratio of 1:1000. After indicated incubation period, MTT was added to each well and incubated for 4 h at 37 °C. Then, the supernatant was discarded gently, and the precipitate was dissolved in 100 µL of DMSO in each well. The absorbance (A) at 570 nm was detected with a microplate reader (Multiskan MK3; Thermo Fisher Scientific, MA, USA). Vehicle-treated cells were served as the control for the calculation of relative cell viability (%) of treated group at single concentration. IC50 value was calculated directly from the inhibition curve of serial dilution of test compound and was expressed as mean ± SD using the SPSS statistical software (SPSS17.0 Inc., Chicago, IL, USA).

CDK9/cyclinT1 = CDK9/cyclinT1 (Homo sapiens, UniProt P50750); test: CDK9/cyclinT1 Lance Ultra Assay, single concentration screen; type: biochemical; details: ATP concentration at Km; for inhibition at 0.05 µM: 50 nM, read-out: CDK9 inhibitory rate (%) @ 50nM; for CDK9 inhibitory rate (%) @ 50nM: 0.05 µM
Chain of CDK9/cyclinT1 (P50750 whole entry): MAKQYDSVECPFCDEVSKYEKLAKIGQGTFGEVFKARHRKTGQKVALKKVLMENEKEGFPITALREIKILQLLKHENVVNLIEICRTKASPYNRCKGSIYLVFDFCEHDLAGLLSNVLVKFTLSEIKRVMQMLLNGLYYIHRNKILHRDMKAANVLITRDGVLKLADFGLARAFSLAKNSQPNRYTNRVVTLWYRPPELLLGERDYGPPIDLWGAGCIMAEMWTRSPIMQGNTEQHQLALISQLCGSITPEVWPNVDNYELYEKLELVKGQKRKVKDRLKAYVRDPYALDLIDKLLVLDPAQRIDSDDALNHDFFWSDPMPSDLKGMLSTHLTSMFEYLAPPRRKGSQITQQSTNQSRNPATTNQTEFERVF
Chain of CDK9/cyclinT1 (O60563 whole entry partner): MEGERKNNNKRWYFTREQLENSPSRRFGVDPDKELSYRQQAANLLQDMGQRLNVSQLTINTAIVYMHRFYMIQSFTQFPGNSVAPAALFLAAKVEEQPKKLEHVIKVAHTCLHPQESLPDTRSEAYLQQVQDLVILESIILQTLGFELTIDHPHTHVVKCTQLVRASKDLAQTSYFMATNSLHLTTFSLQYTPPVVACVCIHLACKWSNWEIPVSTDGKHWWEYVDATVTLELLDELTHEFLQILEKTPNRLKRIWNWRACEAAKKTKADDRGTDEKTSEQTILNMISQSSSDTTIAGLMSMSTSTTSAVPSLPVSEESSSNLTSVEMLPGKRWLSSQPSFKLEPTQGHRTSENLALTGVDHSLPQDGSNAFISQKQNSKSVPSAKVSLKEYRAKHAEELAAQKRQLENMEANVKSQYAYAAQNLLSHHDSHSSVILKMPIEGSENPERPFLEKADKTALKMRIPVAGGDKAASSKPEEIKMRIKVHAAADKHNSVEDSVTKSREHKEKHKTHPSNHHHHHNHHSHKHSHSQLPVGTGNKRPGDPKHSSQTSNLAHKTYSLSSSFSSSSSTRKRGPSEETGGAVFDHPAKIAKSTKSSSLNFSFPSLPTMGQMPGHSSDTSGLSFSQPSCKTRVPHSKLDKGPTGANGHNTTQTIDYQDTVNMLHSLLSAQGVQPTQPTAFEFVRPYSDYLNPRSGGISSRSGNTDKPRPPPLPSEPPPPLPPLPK
Procedure: (§3) CDK kinase activity (IC50 values and inhibitory rate at single concentration) was measured using the kinase profiling services (Shanghai ChemPartner Co., Ltd). Compounds were sent to ChemPartner as a solution in DMSO at concentration of 10 mM.

CDK4 = CDK4 (Homo sapiens, UniProt P11802); test: CDK4 kinase IC50, Mobility shift assay; type: biochemical
Chain of CDK4 (P11802 whole entry): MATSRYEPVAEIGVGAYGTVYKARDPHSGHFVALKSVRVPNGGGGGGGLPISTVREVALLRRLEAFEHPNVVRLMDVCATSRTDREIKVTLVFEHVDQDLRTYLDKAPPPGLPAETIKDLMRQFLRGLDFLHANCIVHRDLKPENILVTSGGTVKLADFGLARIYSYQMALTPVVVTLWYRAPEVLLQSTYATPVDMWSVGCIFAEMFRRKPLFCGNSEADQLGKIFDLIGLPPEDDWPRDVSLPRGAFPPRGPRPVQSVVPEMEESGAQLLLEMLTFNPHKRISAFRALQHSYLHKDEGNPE
Chain of CDK4 (P30281 whole entry partner): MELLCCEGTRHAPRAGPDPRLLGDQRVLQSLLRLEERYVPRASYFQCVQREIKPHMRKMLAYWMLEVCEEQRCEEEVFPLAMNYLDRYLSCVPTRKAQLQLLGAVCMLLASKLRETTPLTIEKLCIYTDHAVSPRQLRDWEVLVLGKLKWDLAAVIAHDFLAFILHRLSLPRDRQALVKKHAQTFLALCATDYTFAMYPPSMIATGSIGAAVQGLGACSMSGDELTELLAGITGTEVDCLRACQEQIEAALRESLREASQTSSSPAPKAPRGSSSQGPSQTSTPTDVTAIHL
Procedure: as §3

CDK7 = CDK7 (Homo sapiens, UniProt P50613); test: CDK7 kinase IC50, Mobility shift assay; type: biochemical
Chain of CDK7 (P50613 whole entry): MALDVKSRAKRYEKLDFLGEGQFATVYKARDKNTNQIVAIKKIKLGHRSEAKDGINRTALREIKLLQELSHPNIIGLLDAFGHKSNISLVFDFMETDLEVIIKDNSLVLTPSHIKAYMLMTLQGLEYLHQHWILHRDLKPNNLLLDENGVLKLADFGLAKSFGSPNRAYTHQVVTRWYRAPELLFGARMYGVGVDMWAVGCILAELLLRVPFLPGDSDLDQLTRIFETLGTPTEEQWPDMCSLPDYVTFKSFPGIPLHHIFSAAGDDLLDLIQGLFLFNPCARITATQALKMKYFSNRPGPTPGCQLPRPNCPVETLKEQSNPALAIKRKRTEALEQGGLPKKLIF
Chain of CDK7 (P51946 whole entry partner): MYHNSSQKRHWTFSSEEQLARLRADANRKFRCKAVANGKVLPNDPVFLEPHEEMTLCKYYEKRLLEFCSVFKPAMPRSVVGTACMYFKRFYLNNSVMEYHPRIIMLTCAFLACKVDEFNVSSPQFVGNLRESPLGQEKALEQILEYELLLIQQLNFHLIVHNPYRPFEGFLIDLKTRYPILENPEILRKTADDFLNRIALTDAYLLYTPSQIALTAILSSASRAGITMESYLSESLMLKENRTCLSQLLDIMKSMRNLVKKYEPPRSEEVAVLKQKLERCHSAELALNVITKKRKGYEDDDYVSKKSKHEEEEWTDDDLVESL
Chain of CDK7 (P51948 whole entry partner): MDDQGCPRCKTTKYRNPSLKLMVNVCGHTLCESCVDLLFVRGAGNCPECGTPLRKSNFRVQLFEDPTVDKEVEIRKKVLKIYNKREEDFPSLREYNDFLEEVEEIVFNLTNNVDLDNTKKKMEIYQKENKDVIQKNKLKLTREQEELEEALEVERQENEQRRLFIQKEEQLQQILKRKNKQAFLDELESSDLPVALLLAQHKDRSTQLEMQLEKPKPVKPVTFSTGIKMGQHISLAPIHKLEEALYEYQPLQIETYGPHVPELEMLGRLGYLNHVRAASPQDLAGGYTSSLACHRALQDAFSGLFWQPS
Procedure: as §3

CDK9 = CDK9 (Homo sapiens, UniProt P50750); test: CDK9 kinase IC50, Mobility shift assay; type: biochemical
Chain of CDK9 (P50750 whole entry): as the sequence (P50750 whole entry) above
Chain of CDK9 (O60563 whole entry partner): as the sequence (O60563 whole entry partner) above
Procedure: as §3

CDK2 = CDK2 (Homo sapiens, UniProt P24941); test: CDK2 kinase IC50, Mobility shift assay; type: biochemical
Procedure: as §3

CDK1 = CDK1 (Homo sapiens, UniProt P06493); test: CDK1 kinase IC50, Mobility shift assay; type: biochemical
Chain of CDK1 (P06493 whole entry): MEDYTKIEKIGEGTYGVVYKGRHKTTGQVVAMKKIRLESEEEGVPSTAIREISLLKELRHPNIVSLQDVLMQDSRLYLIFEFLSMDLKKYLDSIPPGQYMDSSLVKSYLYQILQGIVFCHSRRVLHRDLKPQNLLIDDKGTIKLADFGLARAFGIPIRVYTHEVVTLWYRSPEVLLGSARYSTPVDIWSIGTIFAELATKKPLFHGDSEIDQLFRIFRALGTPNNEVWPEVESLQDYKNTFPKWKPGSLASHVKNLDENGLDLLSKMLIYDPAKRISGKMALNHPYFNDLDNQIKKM
Chain of CDK1 (P14635 whole entry partner): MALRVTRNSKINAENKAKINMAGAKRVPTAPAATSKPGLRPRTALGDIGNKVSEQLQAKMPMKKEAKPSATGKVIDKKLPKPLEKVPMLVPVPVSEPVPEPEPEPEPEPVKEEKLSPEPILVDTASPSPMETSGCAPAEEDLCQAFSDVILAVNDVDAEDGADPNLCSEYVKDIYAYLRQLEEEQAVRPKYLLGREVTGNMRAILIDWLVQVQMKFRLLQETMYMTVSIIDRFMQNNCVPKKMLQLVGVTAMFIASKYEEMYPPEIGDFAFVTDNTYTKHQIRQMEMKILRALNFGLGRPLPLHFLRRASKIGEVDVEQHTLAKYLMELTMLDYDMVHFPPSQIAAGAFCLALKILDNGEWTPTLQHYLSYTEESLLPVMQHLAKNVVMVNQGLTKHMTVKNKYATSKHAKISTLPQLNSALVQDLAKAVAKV
Procedure: as §3

Oral PK study in rats = type: in vivo; details: male, SD, rat, plasma, 30 mg/kg
Procedure: Synthetic compound was administered as a suspension or solution in the saline with 5% DMSO and 5% Solutol. GCTB was dissolved in saline. All of the experiments were approved by the Institutional Animal Care and Use Committee of Institute of Medicinal Biotechnology. All experiments were carried out under ethics committee–approved protocols and in compliance with the guidelines for the care of laboratory animals of Institute of Medicinal Biotechnology, CAMS.
SD rats were purchased from Beijing Vital River Laboratory Animal Technology Co., Ltd and randomly divided into three groups (n = 3, male). The animals were housed under standard conditions and fastened for 12 h before the treatment. They had free access to water and consumed a standard laboratory diet from 4 h after administration. Blood was taken from the orbital venous plexus at 0, 0.083, 0.25, 0.5, 1, 2, 4, 6, 8, and 24 h after intragastric administration of the test compound (30 mg/kg). The blood samples were collected into heparin anticoagulated EP tubes and centrifuged at 8000 r/min for 5 min at 2−8 °C; the plasma was separated and stored at −70 °C for use. Plasma was centrifuged at 4000 rpm for 10 min at 2−8 °C and stored at −70 °C until analysis. Plasma samples were analysed by LC-MS/MS (AB Sciex API4000 QTRAP) equipped with an ESI ion resource and Analyst 1.5.1 software. The noncompartmental model analysis was used for calculating pharmacokinetic parameters with the WinNolin professional v6.3 program (Pharsight, USA).

BxPC-3 = test: MTT proliferation assay in BxPC-3 cells; type: cell-based; details: Homo sapiens, 72 h drug exposure
Procedure: as §1
as §2, with “Cells were planted in 96-well plates at a density of 3000–4000 cells per well and incubated at 37 °C in a humidified CO2 incubator for 24 h. Then 3-fold” for “Then 3-fold”

PANC-1 = test: MTT proliferation assay in PANC-1 cells; type: cell-based; details: Homo sapiens, 72 h drug exposure
Procedure: as §1
as §2, with “Cells were planted in 96-well plates at a density of 3000–4000 cells per well and incubated at 37 °C in a humidified CO2 incubator for 24 h. Then 3-fold” for “Then 3-fold”

AsPC-1 = test: MTT proliferation assay in AsPC-1 cells; type: cell-based; details: Homo sapiens, ASPC1; 72 h drug exposure
Procedure: as §1
as §2, with “Cells were planted in 96-well plates at a density of 3000–4000 cells per well and incubated at 37 °C in a humidified CO2 incubator for 24 h. Then 3-fold” for “Then 3-fold”

[1] = Solubility / precipitation observations; type: physicochemical

Row | IC50 (MIA PaCa-2 cells; Homo sapiens, MIA PaCa-2, 72 h) | inhibition at 0.05 µM (CDK9/cyclinT1) | IC50 (CDK4) | IC50 (CDK7) | IC50 (CDK9) | IC50 (CDK2) | Structure (SMILES) | also measured
1 | 45.1 ± 16.6 µM | 93.2% |  |  |  |  | CN(C)C(=O)c1cc2cnc(Nc3ccccc3)nc2n1C1CCCC1 [compound 2h] | 
2 | 10.5 ± 0.74 µM | 89.3% |  |  |  |  | CN(C)C(=O)c1cc2cnc(Nc3ccc(S(=O)(=O)N(C)C)cc3)nc2n1C1CCCC1 [2e, 7-Cyclopentyl-2-((4-(N,N-dimethylsulfamoyl)phenyl)amino)-N,N-dimethyl-7H-pyrrolo[2,3-d]pyrimidine-6-carboxamide] | 
3 | 6.23 ± 1.25 µM | 91.8% | 148 nM | > 10000 nM | 7.7 nM | 7980 nM | CN(C)C(=O)c1cc2cnc(Nc3ccc(S(=O)(=O)Nc4ccc(Cl)cc4)cc3)nc2n1C1CCCC1 [2d, 2-((4-(N-(4-chlorophenyl)sulfamoyl)phenyl)amino)-7-cyclopentyl-N,N-dimethyl-7H-pyrrolo[2,3-d]pyrimidine-6-carboxamide] | 
4 | 7.8 ± 1.04 µM | 99.1% | 35 nM | > 10000 nM | 6.3 nM | 227 nM | CN1CCN(S(=O)(=O)c2ccc(Nc3ncc4cc(C(=O)N(C)C)n(C5CCCC5)c4n3)cc2)CC1 [5c, 7-Cyclopentyl-N,N-dimethyl-2-((4-((4-methylpiperazin-1-yl)sulphonyl)phenyl)amino)-7H-pyrrolo[2,3-d]pyrimidine-6-carboxamide] | IC50 (CDK1): 550 nM
5 | 16.5 ± 7 µM | 16.9% |  |  |  |  | CN(C)C(=O)c1cc2cnc(Nc3ccc(N4CCNCC4)cn3)nc2n1C1CCCC1 [Ribociclib, reference compound] | 
6 | 0.94 ± 0.25 µM | 98.2% | 20 nM | 4970 nM | 3.2 nM | 147 nM | CN(C)C(=O)c1cc2cnc(Nc3ccc(S(=O)(=O)N4CCNCC4)cc3)nc2n1C1CCCC1.O=C(O)C(F)(F)F [compound 5b, 7-Cyclopentyl-N,N-dimethyl-2-((4-(piperazin-1-ylsulfonyl)phenyl)amino)-7H-pyrrolo[2,3-d]pyrimidine-6-carboxamide trifluoroacetate] | Cmax (Oral PK study in rats; single oral administration, read-out: maximum plasma drug concentration (Cmax)): 1080 ng/mL; AUC (Oral PK study in rats; single oral administration, read-out: systematic exposure (AUC0‑t)): 4430 ng·h/mL; AUC(0-inf) (Oral PK study in rats; oral, n = 3): 4780 ± 2160 ng·h/mL; AUC(0-t) (Oral PK study in rats; oral, n = 3): 4430 ± 1620 ng·h/mL; MRT (Oral PK study in rats; oral, n = 3): 3.62 ± 0.83 h; Tmax (Oral PK study in rats; oral, n = 3): 1.17 h; half-life (Oral PK study in rats; oral, n = 3): 2.2 ± 0.9 h; Cmax (Oral PK study in rats; oral, n = 3, read-out: Cmax): 2000 nM; IC50 (BxPC-3): 0.249 ± 0.099 µM; IC50 (CDK1): 333 nM; IC50 (PANC-1): 5.81 ± 1.38 µM; IC50 (AsPC-1): 1.48 ± 0.09 µM
7 | 18.9 ± 2.12 µM | 96.5% |  |  |  |  | CN(C)C(=O)c1cc2cnc(Nc3ccc(S(C)(=O)=O)cc3)nc2n1C1CCCC1 [2f, 7-Cyclopentyl-N,N-dimethyl-2-((4-(methylsulfonyl)phenyl)amino)-7H-pyrrolo[2,3-d]pyrimidine-6-carboxamide] | 
8 | > 10 µM | 100% |  |  |  |  | Cc1ccnc(NS(=O)(=O)c2ccc(Nc3ncc4cc(C(=O)N(C)C)n(C5CCCC5)c4n3)cc2)n1 [2a, 7-cyclopentyl-N,N-dimethyl-2-((4-(N-(4-methylpyrimidin-2-yl)sulfamoyl)phenyl)amino)-7H-pyrrolo[2,3-d]pyrimidine-6-carboxamide] | IC50 (MIA PaCa-2 cells): 13 ± 0.37 µM
9 | > 100 µM | 27% |  |  |  |  | CN(C)C(=O)c1cc2cnc(Nc3ccc(S(N)(=O)=O)cn3)nc2n1C1CCCC1 [compound 2i, 7-Cyclopentyl-N,N-dimethyl-2-((5-sulfamoylpyridin-2-yl)amino)-7H-pyrrolo[2,3-d]pyrimidine-6-carboxamide] | CDK9 inhibitory rate (%) @ 50nM (CDK9/cyclinT1): 27.4%
10 | > 10 µM | 98.7% |  |  |  |  | CN(C)C(=O)c1cc2cnc(Nc3ccc(S(=O)(=O)Nc4ncccn4)cc3)nc2n1C1CCCC1 [compound 2b, 7-Cyclopentyl-N,N-dimethyl-2-((4-(N-(pyrimidin-2-yl)sulfamoyl)phenyl)amino)-7H-pyrrolo[2,3-d]pyrimidine-6-carboxamide] | solubility (in words) [1]: poor solubility; IC50 (MIA PaCa-2 cells): 14.3 ± 0.21 µM
11 | 4.35 ± 1.61 µM | 81.8% | 52 nM | > 10000 nM | 13 nM | 236 nM | CN(C)C(=O)c1cc2cnc(Nc3ccc(S(=O)(=O)N4CCOCC4)cc3)nc2n1C1CCCC1 [5e, 7-Cyclopentyl-N,N-dimethyl-2-((4-(morpholinosulfonyl)phenyl)amino)-7H-pyrrolo[2,3-d]pyrimidine-6-carboxamide] | IC50 (CDK1): 439 nM
12 | 2.85 ± 0.52 µM | 80.6% | 170 nM | > 10000 nM | 20 nM | 2340 nM | CC1CCN(S(=O)(=O)c2ccc(Nc3ncc4cc(C(=O)N(C)C)n(C5CCCC5)c4n3)cc2)CC1 [5d, 7-Cyclopentyl-N,N-dimethyl-2-((4-((4-methylpiperidin-1-yl)sulphonyl)phenyl)amino)-7H-pyrrolo[2,3-d]pyrimidine-6-carboxamide] | IC50 (CDK1): 906 nM
13 | 80.8 ± 16 µM | 54% |  |  |  |  | COc1ccccc1NC(=O)c1cc2cnc(Nc3ccc(S(=O)(=O)Nc4ncccn4)cc3)nc2n1C1CCCC1 [10b, 7-Cyclopentyl-N-(2-methoxyphenyl)-2-((4-(N-(pyrimidin-2-yl)sulfamoyl)phenyl)amino)-7H-pyrrolo[2,3-d]pyrimidine-6-carboxamide] | CDK9 inhibitory rate (%) @ 50nM (CDK9/cyclinT1): 54.4%
14 | 69.1 ± 15.5 µM | 25% |  |  |  |  | CN(C)C(=O)c1cc2cnc(Nc3ccc(S(=O)(=O)N(C)C)cn3)nc2n1C1CCCC1 [2j] | CDK9 inhibitory rate (%) @ 50nM (CDK9/cyclinT1): 25.8%
15 | 40.8 ± 3.26 µM | -3.1% |  |  |  |  | COc1ccccc1NC(=O)c1cc2cnc(Nc3ccc(S(=O)(=O)Nc4nc(C)cc(C)n4)cc3)nc2n1C1CCCC1 [10a, 7-Cyclopentyl-2-((4-(N-(4,6-dimethylpyrimidin-2-yl)sulfamoyl)phenyl)amino)-N-(2-methoxyphenyl)-7H-pyrrolo[2,3-d]pyrimidine-6-carboxamide] | 
16 | 18.8 ± 5.54 µM | 99.1% |  |  |  |  | CN(C)C(=O)c1cc2cnc(Nc3ccc(S(=O)(=O)Nc4ccccn4)cc3)nc2n1C1CCCC1 [2c] | solubility (in words) [1]: poor solubility
